Results: patent US20100233249A1, “CONTRACEPTIVE METHODS AND COMPOSITIONS RELATED TO PROTEASOMAL INTERFERENCE” (priority 2003, published 2010)
Entries after “also recorded” stand apart in the source; their conditions may differ. Where a SMILES comes first, the peptide text is derived from it. The star is where a group is joined. Cbz = O=C(OCc1ccccc1)*

Tests used:
[1] = test system: boar spermatozoa bound to the zona pellucida; experiment: Sperm-zona binding and sperm acrosomal status (DAPI, c-Yes immunofluorescence); format: cell-based, porcine
Experimental: To evaluate sperm-zona binding and sperm acrosomal status, zona-enclosed oocytes were fixed and the tyrosine kinase c-Yes, known to be present in the subacrosomal and outer acrosomal layer of perinuclear theca in spermatozoa with an intact acrosome (Leclerc and Goupil, 2002) was evaluated by immunofluorescence. The number of spermatozoa bound to the zona pellucida was determined after staining with DAPI. Five eggs per group were counterstained with an antibody against the acrosomal tyrosine kinase c-Yes (see Immunofluorescence) and DAPI and photographed at 60× magnification. ZP-bound acrosome-reacted and acrosome intact spermatozoa were counted and the values were expressed as a percent (%) of acrosome intact sperm/egg. Treatment results were compared by χ2 test and by general linear model procedures of SAS 8.2.
It was first observed that proteasomal inhibitors lactacystin and MG132 prevent fertilization in the course of studies aimed at confirming the proteasomal route of degradation of the paternal, sperm mitochondria inside the porcine zygote (Sutovsky et al., 2003). This study was followed up on by experiments designed to determine at which step of fertilization the inhibitors exert the block. […] The experiment was repeated four times with consistent results. […] To rule out that MG132 affects sperm viability, sperm-zona binding or acrosomal exocytosis, oocytes fertilized in the presence of 10 μM MG132 were fixed with their zona pellucida intact at 20 h p.i. Sperm heads bound to ZP were detected with DAPI and intact acrosomes were detected by antibodies against tyrosine kinase c-Yes, known to reside in the sub-acrosomal and outer acrosomal layer of perinuclear theca of acrosome-intact spermatozoa (FIG. 1 A-D). Since the spermatozoa in this experiment were pre-labeled with MitoTracker CMTM Ros, the sperm mitochondrial sheaths were rendered detectable inside the fertilized oocytes. […] However, there was no significant difference in the number of sperm bound per egg (99.3 with MG132 vs. 93.3 in control) or in the percentage of acrosome-intact, zona-bound sperm (2.01% with MG132 vs. 2.14% in control).

[2] = test system: bovine ova / bull spermatozoa; experiment: Bovine in vitro fertilization; format: cell-based
Experimental: The effect of proteasomal interference on the ability of bull spermatozoa to fertilize bovine ova was analyzed in vitro. Specific, fully reversible proteasomal inhibitor MG132 (100 μM) was added to fertilization medium at the time of insemination. This allowed fertilization to occur only in 3 out of […] ova examined at 20 h post insemination (2.8% rate of fertilization; Table 2). […] Proteasomes in pronuclei were detected with an antibody against α-type and β-type proteasomal subunits. DNA was visualized with DAPI (blue).
However, several groups of ova were preincubated with 100 μM MG132 for 2 hours prior to fertilization to rule out that MG132 could block or hinder fertilization by a direct effect on zona pellucida oolemma or ooplasm, as opposed to an inhibitory effect on sperm acrosome-borne proteasomes (Sutovsky et al., 2003a, b).

[3] = test system: zona-enclosed oocytes / boar spermatozoa; experiment: Porcine in vitro fertilization of zona-enclosed (zona-intact) oocytes with inhibitor or antibody in the fertilization medium; format: cell-based; conditions: for Monospermic (number of oocytes) / Not fertilized (%) / Not fertilized (number of oocytes) / Polyspermic (number of oocytes) / Monospermic (%) / Polyspermic (%): 10 uM in culture medium at the time of insemination, 20 h p.i.; for penetration of ZP: 100 uM concentration; for fertilization of zona-enclosed (zona-intact) oocytes: agent in fertilization medium during porcine IVF
rat ova = conditions: Josefsberg et al., 2000; cited from earlier work
pronuclei of bovine ova = experiment: Pronuclear development in bovine fertilized ova (immunofluorescence); format: cell-based
Experimental: The ubiquitin-proteasome pathway was until recently ascribed solely to cytoplasmic compartment. The presence and proteolytic activity of proteasomes in the nuclear compartment of […] was analyzed. Specific immune sera were used for the immunolocalization of proteasomal subunits LMP2, α/β and MECL1 in bovine pronuclear zygotes at various stages of pronuclear development. […] Proteasomal subunits started to infiltrate both male and female pronuclei at the initial stage of sperm nuclear decondensation. Both the male and the female pronuclei become occupied by proteasomes prior to reaching full size and apposition. High density of proteasomes was observed inside the apposed, full-sized pronuclei in both monospermic and polyspermic ova, and in cases of asynchronous pronuclear development. […] The sperm tail was visualized by the preincubation of spermatozoa prior to fertilization with a vital mitochondrial dye MitoTracker Green FM (green).
Such fertilization in presence of low concentration MG132 allowed the observation of the effects of proteasomal interference on pronuclear development. […] DNA was stained with blue fluorecent DAPI and sperm tails inside the fertilized ova were identified by the presence of green fluorescence, which accumulated in sperm mitochondrial sheath during sperm preincubation with MitoTracker GreenFM. […]

[4] = test system: zona-free oocytes / boar spermatozoa; experiment: Porcine in vitro fertilization of zona-free oocytes; format: cell-based
Experimental: IVF was performed using zona-enclosed and zona-free (ZF or ZP−) oocytes in the presence or absence of MG132 and antibody MECL-1. Removal of the zona pellucida was accomplished by a brief (30 sec) exposure of oocytes to 0.5% pronase (Sigma, St. Louis, Mo.). Oocytes were washed extensively and ZF oocytes were allowed to recover from enzymatic treatment for 1 h prior to insemination. For IVF, ZF oocytes were co-incubated with 1×10^5 sperm/ml while zona-enclosed/zona-intact (ZI or ZP+) oocytes were treated as described above. Oocytes were fixed 12 h post insemination (p.i.) in 25% acetic acid/ethanol and stained with 1% orcein to determine the incidence of fertilization. In some experiments, oocytes were evaluated by immunofluorescence microscopy, detecting the presence of pronuclei and sperm tails in the zygotic cytoplasm.
To ascertain that the fertilizing capability of boar spermatozoa was not diminished by some non-specific effect of proteasomal inhibitors on the sperm motility or sperm ability to fuse with the oocyte plasma membrane, porcine oocytes were stripped of ZP and fertilized with acrosome-intact spermatozoa in the presence or absence of MG132 (FIG. 5 A-H). […] MG132 had no effect on the fertilization of zona-intact oocytes when either oocytes or spermatozoa were pre-incubated with it and used for insemination after extensive washing.

[5] = test system: bovine ova / bull spermatozoa; experiment: Bovine in vitro fertilization; format: cell-based; conditions: 10 μM MG132
[6] = test system: ubiquitin-immuno-reactive ZP proteins; experiment: Western blotting / Coomassie staining of ubiquitin-immuno-reactive ZP proteins after IVF; format: cell-based, porcine; conditions: MG132 in fertilization medium; 6 h p.i.
Experimental: SDS-PAGE and Western blotting were carried out as generally described in Sambrook et al. (2001). Oocytes and zygotes were removed from culture at given time points, washed repeatedly in a protein-free TALP HEPES and 350 zygotes per group were boiled for 5 min in […] of loading buffer containing Tris (50 mM), β-mercaptoethanol (5%), glycerol (10%), SDS (2%) and PMSF (100 mM). Boar sperm proteins were extracted by grinding in extraction buffer (50 mM Tris, 20 mM imidazole, 1 mM EDTA, 5 mM benzamidine HCl, 5 μg/ml leupeptine, 1 μg/ml pepstatin A, 100 mM PMSF and 0.1% SDS), centrifuged at 17000×g for 30 min. β-mercaptoethanol, glycerol, SDS were added to the supernatants, achieving the final concentrations as that of the loading buffer. Human spermatozoa were boiled with loading buffer, followed by centrifugation at 25000×g for 30 min to remove the DNA pellet. […] After incubating overnight with the primary anti-ubiquitin antibodies and then with the appropriate biotin-conjugated secondary antibodies, the signals were detected with alkaline phosphatase reaction, using Vectastain ABC-AmP kit (Vector Lab Inc., Burlingame, Calif.).
Next, it was determined whether some of the ubiquitin-immuno-reactive ZP substrates undergo degradation after sperm binding to ZP, and whether such degradation can be prevented by proteasomal inhibitors. […]

[7] = 10 μM MG132, 20 hours post insemination
[8] = 100 μM at fertilization, 20 h post insemination
[9] = 100 μM at fertilization, 20 h post insemination, listed as MG 132
[10] = 100 μM ovum preincubation 2 h, IVF in absence of MG132

CC(C)C[C@@H](C=O)NC(=O)[C@H](CC(C)C)NC(=O)[C@H](CC(C)C)NC(=O)OCc1ccccc1 [MG132, Z-Leu-Leu-Leu-CHO] (Cbz-Leu-Leu-Leu-aldehyde)
gamete viability, sperm-egg binding and sperm-acrosome reaction [1, 7]: does not impair
spermatozoa with intact acrosomes on an oocyte (FIG. 1C) [1, 7]: three
number of sperm bound per egg ([1]; 10 μM MG132, 20 h p.i.): 99.3
percentage of acrosome-intact, zona-bound sperm ([1]; 10 μM MG132, 20 h p.i.): 2.01%
sperm-oocyte binding examined by light microscopy ([1]; ZP+/MG132+ zygotes used for western blotting): not affected
block of bovine fertilization ([2]; 100 μM MG132): completely
M-II/partheno (number of ova) ([2]; 100 μM at fertilization): 40
Partheno (number of ova) ([2]; 100 μM at fertilization): 0
Fertilized (%), rate of fertilization [2, 8]: 2.8%
Fertilized (number of ova) [2, 8]: 3
Fertilized (%), rate of fertilization [2, 9]: (2.44%)
Fertilized (number of ova) [2, 9]: 1
Fertilized (%), fertilization rate [2, 10]: 97.5%
Fertilized (number of ova) [2, 10]: 40
M-II/partheno (number of ova) [2, 10]: 1
Partheno (number of ova) [2, 10]: 0
Fertilized (%), fertilization rate ([2]; 100 μM ovum preincubation 2 h, IVF in absence of MG132, listed as MG 132): (97.56%)
effect on fertilization or pronuclear development ([2]; preincubation of unfertilized ova with 100 μM MG132 for 2 h prior to IVF in absence of MG132): had no effect on fertilization or pronuclear development
anomalies in oocyte morphology ([2]; treatment during bovine IVF): Neither MG132 nor anti-MECL1 treatments were accompanied by identifiable anomalies
fertilization ([3]; 10 μM MG132, fixed at 20 h p.i.): 0%
Monospermic (number of oocytes) [3]: 0
Not fertilized (%) [3]: (100%)
Not fertilized (number of oocytes) [3]: 19
Polyspermic (number of oocytes) [3]: 0
penetration of ZP [3]: completely inhibited
oocytes in which fertilization was prevented ([3]; MG132 added at the time of insemination, four trials): 100%
fertilization of zona-enclosed (zona-intact) oocytes [3]: completely prevented fertilization; also recorded: inhibited in vitro fertilization
fertilization of zona-intact oocytes after pre-incubation ([3]; oocytes or spermatozoa pre-incubated with MG132, extensive washing before insemination): had no effect
progression of meiosis and pronuclear development (rat ova): inhibited
pronuclear development in fertilized ova (pronuclei of bovine ova; fertilized in presence of 10 μM MG132): Abnormal pronuclear development and premature chromosome condensation (PCC) was observed
import of proteasomal subunits into pronuclei (pronuclei of bovine ova; preincubation of ova with 100 μM MG132 prior to fertilization): had no effect
fertilization of zona-free oocytes ([4]; agent present during porcine IVF): had no effect
zona-free oocytes fertilized ([4]; in the presence or absence of MG132, most polyspermic): 92-96%
block of bovine fertilization [5]: inhibited the fertilization only partially
average fertilization rate ([5]; two separate trials): 38.2%
degradation of ZP-contributed oocyte proteins after IVF [6]: effectively prevented

CC(=O)N[C@@H](CSC(=O)[C@]1([C@@H](O)C(C)C)NC(=O)[C@H](C)[C@@H]1O)C(=O)O [lactacystin]
Monospermic (%) [3]: 65%
Monospermic (number of oocytes) [3]: 13
Not fertilized (%) [3]: (25%)
Not fertilized (number of oocytes) [3]: 5
Polyspermic (%) [3]: 10%
Polyspermic (number of oocytes) [3]: 2
Monospermic (%) ([3]; listed as Lactacystin): (65%)
Polyspermic (%) ([3]; listed as Lactacystin): (10%)
fertilization at threshold concentration ([3]; 10 uM lactacystin): did not prevent fertilization
penetration of ZP [3]: completely inhibited
effect on fertilization rates ([3]; added at the time of insemination): dose-dependent effect
fertilization of zona-enclosed (zona-intact) oocytes [3]: completely prevented fertilization
block of fertilization ([3]; lactacystin at 100 μm concentration): 100%
